Literature values as cited in patent publication US7105698B2, “Process for the separation of R(-)-and S(+)-5-[2-[[2-(2-ethoxyphenoxy)ethyl]amino]propyl]-2- methoxybenzenesulfonamide” (Ragactives, S.L., priority 2002, dated 2006).

Details: ratio R(−)-I versus S(+)-I; prior studies

SMILES: CCOc1ccccc1OCCN[C@H](C)Cc1ccc(OC)c(S(N)(=O)=O)c1 [R(−)-I, R(−)-5-[2-[[2-(2-ethoxyphenoxy)ethyl]amino]propyl]-2-methoxybenzenesulfonamide]
- pharmacological action of R(−)-I relative to its S(+)-I enantiomer: up to 320 times
